Laboratory results taken from patent publication US12678451B2, “Cannabinoid and omega fatty acid compositions and methods of using” (GreenWay Herbal Products, LLC, priority 2019, dated 2026).

What was measured:
[1] = tested on: cytokine levels in differentiated THP-1 cells treated with LPS; experiment: THP-1 human cellular LPS cytokine assay, three independent experiments, total averaged suppression; details: for inhibition at 2 µM: Homo sapiens, THP-1, 4 h, read-out: % Cytokine Suppression (total averaged)
[2] = tested on: differentiated U-937 cells; experiment: Human cellular U-937 autophagy induction assay (anti-LC3); assay type: cell-based; details: for activation at 1 µM: Homo sapiens, U-937, 12 h, read-out: Induction of autophagy with respect to the untreated control
Method: The induction of autophagy was monitored using anti-LC3 antibodies to detect LC3 on the autophagosome in human U-937 pro-monocytic histiocytic lymphoma cells (ATCC, Manassas, Va., USA), which generate morphologies characteristic of macrophages upon induction by various stimuli. U-937 cells were cultured in RPMI-1640 medium with L-glutamine and sodium bicarbonate (Sigma-Aldrich, St Louis, Mo.) supplemented with 10% fetal bovine serum (FBS) and 1% penicillin in 25 cm2 tissue flasks at 37° C. in a 5% CO2 humidified atmosphere and passaged every 2-3 days. U-937 cells were seeded in 96 well plates at 5×10^5 cells/mL and stimulated with 100 ng/mL PMA to induce differentiation for 24 hours. The cells were then treated with the various cannabinoids at 1.0 μM concentrations for 12 hours. 30 μM chloroquine was used as a positive control. After treatment, the cells were fixed using 3.7% formaldehyde in PBS for 15 minutes at room temperature and washed with PBS to remove the fixative. Permeabilization reagent (0.2% Triton X-100 in PBS) (Sigma-Aldrich) was added, the cells were incubated for 15 minutes at room temperature and then the cells were washed with PBS to remove the permeabilization reagent. LC3B rabbit polyclonal antibody (Invitrogen) was added at a final concentration of 0.5 μg/ml for 1 hour at room temperature and the cells were washed with PBS remove the primary antibody. Secondary conjugated goat anti-rabbit polyclonal antibody (Thermo Scientific) was then added at a final concentration of 2.0 μg/ml for 1 hour at room temperature. The cells were washed, Hoechst dye was added to stain the nucleus and the cells were imaged using an Arrayscan VTI high-content screening (HCS) reader (Thermo Scientific) with the appropriate filters and the data was analyzed using the vHCS Scan software.
Chloroquine at a concentration of 30 μM was included as a positive control. The ability to induce autophagy was determined as a percentage with respect to the untreated control.

[3] = DPPH antioxidant assay; assay type: biochemical
Method: The ability of the cannabinoids to act as potential antioxidants was assessed using the 2,2-diphenyl-1-picrylhydrazyl (DPPH) antioxidant assay. The cannabinoids CBDA, CBD, CBDVA, CBDV, CBG, THCV, and the 1:1 CBD:CBDA mixture had the highest antioxidant activities with radical scavenging activities of 38.19%, 48.00%, 43.81%, 44.21%, 44.28%, 45.71%, and 43.74%, respectively.
The 2,2-diphenyl-1-picrylhydrazyl (DPPH) free radical (Alfa Aesar) was prepared at 0.1 mM in ethanol. The cannabinoids were tested at a final concentration of 100 uM. 2 uL of 7.5 mM stock solutions of the cannabinoids to be tested in DMSO were added to 148 uL of 0.1 mM DPPH to achieve a final concentration of 100 μM in the assay. Ascorbic acid (Thermo Scientific) at a final concentration of 10 mg/ml was used as a positive control. The reaction mixture was incubated in the dark at room temperature for 1 hour, the absorbance of the mixture was read at 517 nm using a Spectra Max 5M microplate reader (Molecular Devices, LLC, Sunnyvale, Calif., USA) and the absorbance was converted to percent radical scavenging activity (% RSA) using the following formula: % RSA=[(Absorbance of the control−Absorbance of the sample)/(Absorbance of the control)]×100.
Free radical production occurs when the immune system is activated and antioxidants represent potential effective treatments for inflammatory conditions and autoimmune diseases. […] The DPPH antioxidant assay can be used to measure the ability of a compound to scavenge free radicals by measuring the ability of compounds to hydrogenate and reduce DPPH. The DPPH assay was conducted on CBCA, CBDA, CBDVA, CBGA, CBLA, CBNA, THCVA, and their decarboxylated derivatives as well as the 1:1 CBD:CBDA mixture.

| SMILES | effectiveness at reducing elevated cytokine levels relative to dexamethasone [1] | inhibition at 2 µM [1] | Fluorescence (LC3) ([2]; 1.0 μM, 12 hours) | activation at 1 µM [2] | % RSA (radical scavenging activity) ([3]; 100 μM, 1 hour) | radical scavenging activity compared to the untreated control ([3]; 100 μM) | % RSA (radical scavenging activity) ([3]; 10 mg/ml, positive control) | Fluorescence (LC3) ([2]; 30 uM, positive control) |
| --- | --- | --- | --- | --- | --- | --- | --- | --- |
| CCCCCc1cc2c(c(O)c1C(=O)O)C=CC(C)(CCC=C(C)C)O2 (centres unmarked) [CBCA, 5-Hydroxy-2-methyl-2-(4-methyl-3-penten-1-yl)-7-pentyl-2H-chromene-6-carboxylic acid] | at least half as effective as dexamethasone | 34.6% | 42.61 | -11.7% | 19.02% | – | – | – |
| CCCCCc1cc(O)c(C/C=C(\C)CCC=C(C)C)c(O)c1 [CBG, 2-[(2E)-3,7-Dimethyl-2,6-octadien-1-yl]-5-pentyl-1,3-benzenediol] | at least half as effective as dexamethasone | 35.8% | 37.35 | -22.6% | 44.28% | at least two-fold | – | – |
| CCCCCc1cc2c(c(O)c1C(=O)O)[C@@H]1[C@H]3[C@H](CC[C@@]3(C)O2)C1(C)C [CBLA, (1aS,3aR,8bR,8cR)-8-Hydroxy-1,1,3a-trimethyl-6-pentyl-1a,2,3,3a,8b,8c-hexahydro-1H-4-oxabenzo[f]cyclobuta[cd]indene-7-carboxylic acid] | at least half as effective as dexamethasone | 34.4% | 72.27 | 49.8% | 21.18% | – | – | – |
| CCCc1cc2c(c(O)c1C(=O)O)[C@@H]1C=C(C)CC[C@H]1C(C)(C)O2 [THCVA, (6aR,10aR)-6a,7,8,10a-tetrahydro-1-hydroxy-6,6,9-trimethyl-3-propyl-6H-Dibenzo[b,d] pyran-2-carboxylic acid] | at least half as effective as dexamethasone | 28.4% | 66.45 | 37.7% | 29.22% | – | – | – |
| C=C(C)C1CCC(C)=CC1c1c(O)cc(CCC)cc1O (centres unmarked) [CBDV, 2-(6-Isopropenyl-3-methyl-2-cyclohexen-1-yl)-5-propyl-1,3-benzenediol] | at least half as effective as dexamethasone | 36.7% | 38.19 | -20.9% | 44.21% | at least two-fold | – | – |
| CCCc1cc(O)c2c(c1)OC(C)(C)[C@@H]1CCC(C)=C[C@@H]21 [THCV, (6aR,10aR)-6,6,9-trimethyl-3-propyl-6H,6aH,7H,8H,10aH-benzo[c]isochromen-1-ol] | at least half as effective as dexamethasone | 34.8% | 42.14 | -12.7% | 45.71% | at least two-fold | – | – |
| CCCCCc1cc(O)c(C/C=C(\C)CCC=C(C)C)c(O)c1C(=O)O [CBGA, 3-[(2E)-3,7-Dimethyl-2,6-octadien-1-yl]-2,4-dihydroxy-6-pentylbenzoic acid] | at least half as effective as dexamethasone | 34.3% | 37.47 | -22.3% | 26.84% | – | – | – |
| CCCCCc1cc2c(c(O)c1C(=O)O)-c1cc(C)ccc1C(C)(C)O2 [CBNA, 1-Hydroxy-6,6,9-trimethyl-3-pentyl-6H-benzo[c]chromene-2-carboxylic acid] | at least half as effective as dexamethasone | 34% | 36.89 | -23.5% | 24.92% | – | – | – |
| C=C(C)[C@@H]1CCC(C)=C[C@H]1c1c(O)cc(CCC)c(C(=O)O)c1O [CBDVA, 2,4-Dihydroxy-3-[(1R,6R)-6-isopropenyl-3-methyl-2-cyclohexen-1-yl]-6-propylbenzoic acid] | at least half as effective as dexamethasone | 32.4% | 39.29 | -18.6% | 43.81% | at least two-fold | – | – |
| CCCCCc1cc(O)c2c(c1)OC(C)(CCC=C(C)C)C=C2 (centres unmarked) [CBC, 2-Methyl-2-(4-methyl-3-penten-1-yl)-7-pentyl-2H-chromen-5-ol] | – | 22.6% | 47.84 | -0.85% | 31.95% | – | – | – |
| O=C1O[C@H]([C@@H](O)CO)C(O)=C1O [Ascorbic acid, reference compound] | – | – | – | – | – | – | 94.00% | – |
| CCCCCc1cc(O)c2c(c1)OC1(C)CCC3C1C2C3(C)C (centres unmarked) [CBL, 1,1,3a-Trimethyl-6-pentyl-1a,2,3,3a,8b,8c-hexahydro-1H-4-oxabenzo[f]cyclobuta[cd]inden-8-ol] | at least half as effective as dexamethasone | 43.6% | 76.86 | 59.3% | 30.84% | – | – | – |
| CCCCCc1cc(O)c2c(c1)OC(C)(C)c1ccc(C)cc1-2 [CBN, 6,6,9-Trimethyl-3-pentyl-6H-benzo[c]chromen-1-ol] | at least half as effective as dexamethasone | 37% | 40.80 | -15.4% | 33.83% | – | – | – |
| CCN(CC)CCCC(C)Nc1ccnc2cc(Cl)ccc12 (centres unmarked) [Chloroquine, chloroquine, reference compound] | – | – | – | – | – | – | – | 111.20 |
